Source: the supplement of paper PMC10331698
± gives the standard deviation of the averaged measurements.

Key:
Experiment in all cases: level (log10 ratio to DMSO vehicle control); higher = higher biomarker level / cell amount than vehicle control
[1] = compound: CN(C(=O)C(F)(F)C(F)(F)C(F)(F)F)[Si](C)(C)C [N-Methyl-N-trimethylsilylheptafluorobutyramide] (in DMSO)
Description: (§1)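 BioMAP Diversity Plus panel of 12 human primary cell co-culture systems (3C, 4H, LPS, SAg, BT, BF4T, BE3C, CASM3C, HDF3CGF, KF3CT, MyoF, Mphg). Compounds were added 1 h before stimulation and left for 24 h (MyoF 48 h; BT 72 h for soluble read-outs or 6 d for IgG). Biomarkers were read by ELISA, cytotoxicity by SRB, PBMC viability and proliferation by Alamar Blue. Each well value was divided by the mean of 8 DMSO control wells on the same plate and log10 transformed; duplicate blinded samples were tested at 4 concentrations.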

[2] = compound: CO[Si](C)(CCC(F)(F)C(F)(F)C(F)(F)C(F)(F)C(F)(F)C(F)(F)F)OC [Dimethoxymethyl((perfluorohexyl)ethyl)silane] (in DMSO)
Description: as §1

[3] = compound: O=C(O)C(F)(F)C(F)(F)C(F)(F)C(F)(F)C(=O)O [Octafluoroadipic acid] (in DMSO)
Description: as §1

[4] = compound: O=C(O)C(F)(F)OC(F)(F)C(F)(F)OC(F)(F)C(F)(F)OC(F)(F)C(F)(F)C(F)(F)C(F)(F)F [Perfluoro-3,6,9-trioxatridecanoic acid] (in DMSO); conditions: 6700 nM
Description: as §1

[5] = compound: O=C(O)CCC(F)(C(F)(F)F)C(F)(F)F [4,4-bis(Trifluoromethyl)-4-fluoropropanoic acid] (in DMSO)
Description: as §1

[6] = compound: O=S(=O)(O)C(F)(F)C(F)(F)OC(F)(F)C(F)(F)F [Perfluoro(2-ethoxyethane)sulfonic acid] (in DMSO)
Description: as §1

[7] = compound: OCC(F)(F)OC(F)(F)C(F)(F)OC(F)(F)C(F)(F)OC(F)(F)CO [1H,1H,11H,11H-Perfluorotetraethylene glycol] (in DMSO)
Description: as §1

| Test System | level (log10) ([1]; 6700 nM) | level (log10) ([1]; 20000 nM) | level (log10) ([1]; 60000 nM) | level (log10) ([2]; 6700 nM) | level (log10) ([2]; 20000 nM) | level (log10) ([3]; 6700 nM) | level (log10) ([3]; 20000 nM) | level (log10) ([3]; 60000 nM) | level (log10) [4] | level (log10) ([5]; 6700 nM) | level (log10) ([5]; 20000 nM) | level (log10) ([5]; 60000 nM) | level (log10) ([6]; 6700 nM) | level (log10) ([6]; 20000 nM) | level (log10) ([6]; 60000 nM) | level (log10) ([7]; 6700 nM) | level (log10) ([7]; 20000 nM) | level (log10) ([7]; 60000 nM) |
| --- | --- | --- | --- | --- | --- | --- | --- | --- | --- | --- | --- | --- | --- | --- | --- | --- | --- | --- |
| MyoF:Collagen IV | 0.0175 ± 0.0021 | 0.0075 ± 0.0078 | 0.0325 ± 0.04 | 0.0085 ± 0.018 | 0.038 ± 0.0028 | -0.0175 ± 0.0064 | -0.016 ± 0.016 | 0.002 ± 0.021 | 0.412 ± 0.089 | -0.0105 ± 0.025 | -0.0185 ± 0.023 | 0.0035 ± 0.00071 | 0.0015 ± 0.0021 | 0.004 ± 0.016 | 0.0315 ± 0.04 | -0.012 ± 0.0014 | -0.0015 ± 0.011 | 0.0245 ± 0.021 |
| MyoF:Decorin | 0.009 ± 0.011 | 0.0095 ± 0.018 | 0.03 ± 0.042 | -0.0005 ± 0.0021 | 0.029 ± 0.034 | 0.0005 ± 0.011 | -0.0055 ± 0.019 | -0.001 ± 0.013 | 0.033 ± 0.037 | -0.0215 ± 0.025 | -0.015 ± 0.044 | -0.001 ± 0.04 | -0.0085 ± 0.0092 | 0.001 ± 0.013 | 0.0355 ± 0.005 | -0.009 | -0.013 | 0.019 ± 0.017 |
| MyoF:MMP-1 | -0.007 ± 0.0028 | -0.0055 ± 0.005 | -0.017 ± 0.018 | -0.001 ± 0.011 | -0.012 ± 0.017 | -0.013 ± 0.025 | -0.0175 ± 0.0035 | 0.0125 ± 0.03 | 0.0205 ± 0.029 | 0.0125 ± 0.013 | -0.0265 ± 0.00071 | 0 ± 0.011 | -0.005 ± 0.014 | -0.0365 ± 0.00071 | 0.0155 ± 0.037 | 0 ± 0.027 | -0.0085 ± 0.015 | 0.0465 ± 0.083 |
| MyoF:PAI-I | -0.009 ± 0.021 | 0.0095 ± 0.015 | 0.0105 ± 0.0092 | 0.0075 ± 0.0092 | 0.008 ± 0.0014 | -0.012 ± 0.0099 | -0.01 ± 0.017 | 0.001 ± 0.0085 | -0.0885 ± 0.046 | -0.005 ± 0.0057 | -0.007 ± 0.0042 | -0.006 ± 0.0099 | -0.0005 ± 0.00071 | -0.009 ± 0.013 | 0.0015 ± 0.011 | -0.01 ± 0.02 | -0.0135 ± 0.013 | -0.01 ± 0.018 |
| MyoF:SRB | 0.0035 ± 0.012 | 0.0035 ± 0.0035 | 0.0055 ± 0.0035 | 0.0045 ± 0.0064 | 0.0005 ± 0.00071 | -0.0105 ± 0.0064 | -0.005 ± 0.013 | -0.0015 ± 0.00071 | -0.0815 ± 0.0064 | -0.004 ± 0.0028 | -0.003 ± 0.0014 | 0.0025 ± 0.0021 | -0.005 ± 0.0071 | -0.005 | -0.0015 ± 0.0064 | -0.0065 ± 0.00071 | -0.0145 ± 0.00071 | -0.0445 ± 0.015 |
| MyoF:TIMP-1 | -0.0385 ± 0.019 | -0.027 ± 0.014 | -0.017 | -0.0175 ± 0.0035 | -0.0295 ± 0.018 | -0.0155 ± 0.026 | -0.02 ± 0.025 | -0.0485 ± 0.019 | -0.112 ± 0.0085 | -0.0245 ± 0.091 | -0.042 ± 0.064 | -0.0345 ± 0.025 | 0.003 ± 0.0014 | 0.036 ± 0.028 | 0.0775 ± 0.025 | -0.0035 ± 0.012 | 0.017 | 0.0285 ± 0.005 |
| MyoF:alpha-SM Actin | 0.0035 ± 0.0021 | -0.01 ± 0.0014 | 0.0005 ± 0.021 | -0.0045 ± 0.0064 | -0.018 ± 0.018 | 0.007 ± 0.044 | -0.0105 ± 0.052 | 0.007 ± 0.033 | -0.24 ± 0.025 | 0.0205 ± 0.093 | 0.03 ± 0.095 | 0.0195 ± 0.079 | 0.006 ± 0.025 | 0.0075 ± 0.0078 | -0.017 ± 0.0028 | -0.0125 ± 0.026 | -0.057 ± 0.0042 | -0.167 ± 0.037 |
| MyoF:bFGF | 0.0025 ± 0.0078 | 0.012 ± 0.0042 | 0.0125 ± 0.012 | 0.002 ± 0.0085 | 0.0055 ± 0.011 | -0.0035 ± 0.00071 | 0.002 ± 0.0057 | 0.0055 ± 0.0092 | -0.059 ± 0.03 | 0.005 ± 0.025 | 0.002 ± 0.023 | 0.0155 ± 0.015 | 0.003 ± 0.0014 | 0.0085 ± 0.0064 | 0.0165 ± 0.0092 | 0.0045 ± 0.00071 | 0.0045 ± 0.0092 | 0.004 ± 0.011 |
| lMphg:CCL2/MCP-1 | -0.023 ± 0.0085 | -0.019 ± 0.0028 | 0.002 ± 0.034 | -0.027 ± 0.0057 | 0.001 ± 0.033 | 0.0135 ± 0.013 | -0.008 ± 0.016 | 0.028 ± 0.059 | 0.001 ± 0.014 | -0.01 ± 0.017 | 0.0105 ± 0.0064 | 0.011 ± 0.017 | -0.01 ± 0.03 | 0.005 ± 0.028 | -0.002 ± 0.0042 | -0.0285 ± 0.032 | -0.079 ± 0.034 | -0.073 ± 0.052 |
| lMphg:CCL3/MIP-1alpha | -0.007 ± 0.0057 | -0.018 ± 0.011 | 0.0255 ± 0.032 | -0.012 ± 0.0099 | 0.0065 ± 0.023 | -0.035 ± 0.024 | -0.0045 ± 0.023 | 0.002 ± 0.018 | -0.0245 ± 0.019 | 0.03 ± 0.047 | 0.0255 ± 0.025 | 0.021 ± 0.035 | 0.0145 ± 0.025 | 0.0015 ± 0.0064 | 0.0065 ± 0.021 | -0.051 ± 0.051 | -0.0435 ± 0.026 | 0.015 ± 0.055 |
| lMphg:CD40 | -0.008 ± 0.027 | -0.016 | -0.0145 ± 0.022 | -0.006 ± 0.0014 | -0.012 ± 0.013 | -0.0065 ± 0.0021 | -0.0015 ± 0.0021 | -0.025 ± 0.048 | -0.0205 ± 0.013 | 0.0025 ± 0.016 | -0.001 ± 0.041 | -0.031 ± 0.041 | -0.018 ± 0.02 | -0.013 ± 0.037 | -0.0215 ± 0.025 | -0.0235 ± 0.019 | -0.0385 ± 0.013 | -0.0755 ± 0.03 |
| lMphg:CD62E/E-Selectin | -0.0115 ± 0.00071 | 0.0015 ± 0.0021 | 0.0065 ± 0.0021 | 0.019 ± 0.0099 | 0.0135 ± 0.033 | -0.0025 ± 0.036 | -0.0275 ± 0.057 | -0.028 ± 0.064 | -0.025 ± 0.061 | -0.02 ± 0.038 | -0.0155 ± 0.035 | -0.0285 ± 0.06 | 0.0175 ± 0.0092 | 0.0275 ± 0.0092 | 0.0425 ± 0.0092 | -0.056 ± 0.037 | -0.0635 ± 0.081 | -0.072 ± 0.086 |
| lMphg:CD69 | 0.0015 ± 0.005 | -0.0075 ± 0.035 | -0.039 ± 0.045 | -0.0205 ± 0.018 | -0.0435 ± 0.037 | 0.0095 ± 0.037 | 0.0035 ± 0.081 | -0.008 ± 0.054 | -0.056 ± 0.083 | 0.015 ± 0.0071 | 0 ± 0.027 | -0.021 ± 0.0042 | -0.043 ± 0.075 | 0.011 ± 0.0099 | -0.0415 ± 0.0078 | -0.0285 ± 0.023 | -0.0155 ± 0.016 | 0.0065 ± 0.06 |
| lMphg:CD106/VCAM-1 | -0.025 ± 0.0028 | -0.0055 ± 0.025 | -0.028 ± 0.042 | 0.009 ± 0.021 | -0.009 ± 0.028 | -0.007 ± 0.02 | 0.0065 ± 0.011 | 0.0055 ± 0.005 | -0.017 ± 0.011 | -0.007 ± 0.011 | 0.0005 ± 0.0092 | -0.009 ± 0.017 | -0.0225 ± 0.0064 | -0.016 ± 0.017 | -0.023 ± 0.0014 | -0.015 ± 0.024 | 0.009 ± 0.05 | 0 ± 0.04 |
